Data taken from PMC13091788 (NPJ Aging, 2026).
Counter-ions that a name gives are not always drawn.

Tests used:
rodents = conditions: high doses (up to 100 mg/kg/day), intraperitoneal or oral gavage; cited from earlier work
PAMPA assay = type: in vitro ADME; conditions: read-out: permeability of reference compounds
Protocol: To determine the passive membrane diffusion rates, Corning Gentest Pre-coated PAMPA Plate System was used. The acceptor plate was prepared by adding 200 μL of 0.1 M phosphate buffer (pH 4.5–8.6) supplemented with 5% DMSO to each well, and then 300 μL of 30 μM compounds in 0.1 M phosphate buffer (pH 4.5–8.6) with 5% DMSO were added to the donor wells. The acceptor plate was then placed on top of the donor plate and incubated at 37 °C for 4 h without agitation. After the incubation, the plates were separated and the solutions from each well of both the acceptor plate and the donor plate were transferred to 96-well plates and mixed with acetonitrile. The final concentrations of compounds in both donor and acceptor wells, as well as the concentrations of the initial donor solutions, were analyzed using liquid chromatography-tandem mass spectrometry (LC-MS/MS). The permeability of the compounds was calculated as described in a previous study. […] Two technical replicates were performed.

[1] = Water solubility, roughly examined; type: physicochemical; conditions: roughly examined
Protocol: Finally, we compared the water solubility of the three berberrubine forms. The solubility of three compounds, the reddish-black solid (quinoid-type berberrubine), the reddish-brown solid (berberrubine acetic acid salt), and the yellow solid (berberrubine acetic acid adduct), in water was roughly examined. […] On the other hand, the reddish-brown solid dissolved in about 30 mg in 1 mL of water.

[2] = tested on: MITOL and mitochondrial proteins in C2C12 myoblasts; assay: Western blot of mitochondrial proteins in C2C12 myoblasts; type: cell-based, mouse; conditions: 48 h
Protocol: (§1) Murine myoblast C2C12 cells were used for various cellular experiments in this study. Two different sources of C2C12 cells were used depending on the experiment: C2C12 cells obtained from RIKEN BRC (RCB0987) were used for gene expression, mtDNA quantification, and mitochondrial morphology analysis; C2C12 cells from ATCC (CRL-1772) were used for OCR analysis. Cells were cultured in Dulbecco’s Modified Eagle Medium (DMEM; Sigma-Aldrich or Nacalai Tesque), supplemented with 10% FBS and 1% penicillin–streptomycin. Cells were maintained in a humidified incubator at 37°C with 5% CO2.
(§2) For cellular experiments, berberine or quinoid-type berberrubine (Q-BRB) was dissolved in DMSO, and berberrubine acetic acid adduct (AcA-BRB) was dissolved in distilled H2O. Each compound was diluted in culture medium to the indicated final concentrations.
Proteins in sample buffer were separated by SDS-PAGE and transferred to Immobilon-P PVDF membranes (IPVH00010, Millipore). Blots were probed with the indicated antibodies, and protein bands on the blot were visualized using Chemi-Lumi One L (07880-70, Nacalai Tesque) or Immobilon Western Chemiluminescent HRP Substrate (WBKLS0500, Millipore). Band images were captured using a LuminoGraph I imager (WSE-6100, ATTO). Relative band intensities were quantified using Fiji/ImageJ software. Unprocessed western blot images corresponding to the data presented in the main and supplementary figures are provided in Supplementary Figures 11–16.

[3] = tested on: MITOL and Tom20 mRNA in C2C12 cells; assay: qRT-PCR analysis of C2C12 cells; type: cell-based, mouse; conditions: C2C12, 5 μM or 10 μM
Protocol: as §1, §2
Total RNA was extracted from C2C12 cells using an RNA extraction kit (RNeasy Mini Kit, Qiagen). After washing with PBS, cells were collected by trypsinization and centrifugation at 500 × g for 5 min, and the pellet was lysed according to the manufacturer’s instructions. The extracted RNA was reverse-transcribed into cDNA using a reverse transcription kit (ReverTra Ace, TOYOBO). Quantitative real-time PCR was performed using a qPCR master mix (KAPA SYBR FAST qPCR Master Mix (2X) Kit, KAPABIOSYSTEMS) and a thermal cycler (StepOnePlus, Applied Biosystems). Gene expression levels were normalized to GAPDH. Primer sets used for qRT-PCR are listed in Supplementary Table 1.

C2C12 cells = assay: Quantification of mitochondrial DNA (mtDNA/nDNA ratio); type: cell-based, mouse; conditions: C2C12, 10 μM
Protocol: as §1
To generate mMITOL-knockout C2C12 cells, CRISPR-Cas9 vectors were constructed. Single-guide RNAs (sgRNAs) targeting the mouse MITOL gene were designed using the online tool CRISPOR (http://crispor.org). The oligonucleotide pair corresponding to the mMITOL guide RNA (gRNA sequence, 5′-[…]-3′) was annealed and ligated into the PX459 vector (48139, Addgene). C2C12 cells were transfected using Lipofectamine 3000 (Thermo Fisher Scientific), and knockout clones were selected by serial dilution.
To assess mitochondrial DNA (mtDNA) content, the mtDNA/nuclear DNA (nDNA) ratio was determined by extracting DNA from C2C12 cells using the NucleoSpin Tissue Kit (Takara Bio), followed by real-time quantitative PCR analysis with specific primer sets for mtDNA (16S rRNA or ND1) and nDNA (Hexokinase 2; HK2) (Supplementary Table 2). Real-time quantitative PCR was performed using TB Green Premix Ex Taq II (Takara Bio) and a Thermal Cycler Dice Real-Time System (Takara Bio). The analysis of mtDNA/nDNA ratios was conducted using the ΔΔCt method as previously described.

Q: With `COc1ccc2cc3[n+](cc2c1O)CCc1cc2c(cc1-3)OCO2` [berberrubine chloride] as the molecule, how does the “hepatic toxicity in rodents” value (rodents) read?
A: The value was “hepatic toxicity”.

Q: And the “renal toxicity in rodents” value (rodents)?
A: The value was “renal toxicity”.

Q: With `O=C(O)c1cc(/N=N/c2ccc(S(=O)(=O)Nc3ccccn3)cc2)ccc1O` [sulfasalazine, reference compound] as the molecule, how does the Papp at 4 h (PAMPA assay) read?
A: The Papp at 4 h was 0.084 ×10⁻⁶ cm/s.

Q: For `COCCc1ccc(OCC(O)CNC(C)C)cc1` (stereo not shown) [metoprolol, reference compound], which Papp at 4 h (PAMPA assay) is on record?
A: The Papp at 4 h was 3 ×10⁻⁶ cm/s.

Q: For `COc1ccc2cc3n(cc-2c1=O)CCc1cc2c(cc1-3)OCO2` [berberrubine acetic acid salt], which solubility [1] is on record?
A: Its solubility is no less than 30 mg/mL.

Q: For `Cc1cc(=O)n(-c2ccccc2)n1C` [antipyrine, reference compound], which Papp at 4 h (PAMPA assay) is on record?
A: The Papp at 4 h was 24 ×10⁻⁶ cm/s.

Q: Which “levels of Tom20, Mfn2, HSP60 and ATP5a proteins” value ([2]; C2C12, 5 μM or 10 μM) does the source give for `COc1ccc2cc3[n+](cc2c1OC)CCc1cc2c(cc1-3)OCO2` [berberine, reference compound] here?
A: Its value is “not observed”.

Q: And the “MITOL expression (western blot)” value ([2]; C2C12, 10 μM, berberrubine used as quinoid-type form)?
A: Its value is “did not increase”.

Q: What about the “mRNA levels of MITOL and Tom20” value [3] of the same molecule?
A: Its value is “not observed”.

Q: And the “mitochondrial abundance (mtDNA 16S rRNA or ND1 / nuclear HK2)” value (C2C12 cells)?
A: The value was “did not induce MITOL expression or increase mitochondrial content”.
